Laboratory results taken from US12174198B2, “Methods of characterizing condensate-associated characteristics of compounds and uses thereof” (Dewpoint Therapeutics, Inc., priority 2019, dated 2024).
Counter-ions that a name gives are not always drawn.

Biological target: T1, FUS-SNAP condensates (Homo sapiens, UniProt P35637)
T1 sequence (P35637 1-526): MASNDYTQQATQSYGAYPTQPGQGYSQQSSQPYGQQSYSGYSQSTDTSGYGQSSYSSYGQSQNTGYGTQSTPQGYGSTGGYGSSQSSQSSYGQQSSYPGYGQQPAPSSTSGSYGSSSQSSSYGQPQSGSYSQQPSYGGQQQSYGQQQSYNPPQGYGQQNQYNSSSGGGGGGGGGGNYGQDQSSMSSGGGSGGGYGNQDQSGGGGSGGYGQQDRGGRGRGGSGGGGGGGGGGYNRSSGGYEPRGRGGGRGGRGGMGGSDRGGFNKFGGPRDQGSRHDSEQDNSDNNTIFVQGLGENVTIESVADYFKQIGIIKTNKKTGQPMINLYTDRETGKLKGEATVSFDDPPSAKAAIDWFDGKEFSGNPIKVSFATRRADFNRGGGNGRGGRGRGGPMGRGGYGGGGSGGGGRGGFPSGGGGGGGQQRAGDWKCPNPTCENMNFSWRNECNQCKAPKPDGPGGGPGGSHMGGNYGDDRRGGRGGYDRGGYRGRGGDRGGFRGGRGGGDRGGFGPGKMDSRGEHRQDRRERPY
Test: Mass spectrometry-based depletion assay of compound partitioning
Assay type: physicochemical
Details: for Partitioning into FUS-condensates at different compound concentrations (fraction of compound in supernatant): FIG. 8, 0.1 μM, 1 μM and 10 μM, N=3 technical repeats; for Partitioning into FUS-condensates at different compound concentrations (fraction of compound in supernatant) / Measured fraction outside of the FUS-SNAP condensates, single compound test reactions versus mixture of four compounds: 0.01 μM; for Measured fraction outside of the FUS-SNAP condensates, single compound test reactions versus mixture of four compounds: FIG. 9A, 9B, 0.1 μM and 1 μM, triplicate; for Identified partitioning into FUS-condensates: as identified before Example 5; for Ratio of compound concentration in versus compound concentration out, MS-based assay: condensate volume fraction of 1/1000 used
Experimental: Protein Buffer was prepared (50 mM Tris, pH 7.25, 500 mM KCl, 1 mM DTT, and 5% glycerol). The high salt concentration of Protein Buffer prevents phase separation of macromolecules, e.g., proteins, contained therein. 20 μl aliquots of 70 μM FUS-SNAP protein stock solution were prepared in Protein Buffer. The aliquots of FUS-SNAP protein stock solution were frozen and stored prior to use. Dilution Buffer was prepared (14.7 mM Tris, pH 7.25, and 1 mM DTT).
Aliquots of 70 μM FUS-SNAP protein stock solution were thawed at room temperature for about 10 minutes. The aliquots of protein stock solution appeared clear with no visible precipitates. The thawed protein stock solution were filtered using centrifugation filters (Millipore, UFC30VV00). In brief, the aliquots of protein stock solution were added to a centrifugation filed and centrifuged for 1 minutes at 20,000 rcf at room temperature. The flow-through was collected. The protein concentration of the flow-through was measured and a solution of 33.3 μM FUS-SNAP was prepared by diluting the filtered flow-through and Dilution Buffer.
40 μL test reactions were prepared inside a PCR-tube or a PCR-strip (8 wells; AXYGEN™ 8-Strip PCR Tubes, 0.2 mL) using the following: (i) 34 μL Dilution Buffer, with the test compound at a given concentration, and with DMSO to obtain a final DMSO concentration of 1%, and (ii) 6 μL of 33.3 μM FUS-SNAP filtered protein solution. The final concentration of the 40 reactions were 5 μM FUS-SNAP, 75 mM KCl, 20 mM Tris, 0.75% Glycerol, 1 mM DTT, 1% DMSO, and, for the reactions containing a test compound, the desired test compound concentration.
40 μL reference reactions were prepared as described for the test reactions, however, no test compound was added at this stage.
The test reactions and the reference reactions were incubated for 15 minutes at room temperature. It is expected that within the test reactions, condensed high density liquid droplets (mM concentration of protein) of FUS-SNAP protein (condensed phase) are present in an environment of a lower concentrated solution (μM concentration of protein) of FUS-SNAP dilute phase. Test compounds may or may not partition into the condensed phase causing a reduction of the concentration outside (test compound in the dilute phase) and an increase of the concentration inside (test compound in the droplets). The volume of high density liquid droplets is estimated to be at least 1000-fold smaller than the total volume of the reaction, e.g., 20 nL of a condensed phase in a 20 μL reaction.
Following the 15 minute incubation period, the test reactions and reference reactions were processed to separate condensates (the high density liquid droplets) from the supernatant (the dilute phase). Briefly, the test reactions and reference reactions were centrifuged at 10,000 rcf for 10 minutes in a cooled centrifuge at 20° C. When PCR-strips were sued, the rotor used was the Eppendorf F-45-48-5-PCR. 35 μL of the supernatant from each tube was removed and transferred to a new tube being careful not to disturb the pellets, which contained the condensates.
For the reference reactions, a known amount of the test compound was added to the tube containing the supernatant (which contains protein not associated with a condensate), such that the final compound concentration is the same as the initial concentration of the compound in the test reaction. Reference reactions can also be formed by measuring the amount of protein in the supernatant of a test reaction and replicating a supernatant solution based on the obtained information. The known amount of the compound added to the supernatant from the reference reaction was used to calibrate the mass spectrometry signal of the test reaction.
Additionally, the compound was extracted from the test reactions in order to directly measure the amount of compound in the formed condensates. […]

Row | SMILES | Identified partitioning into FUS-condensates | Ratio of compound concentration in versus compound concentration out, MS-based assay | Partitioning into FUS-condensates at different compound concentrations (fraction of compound in supernatant) | Measured fraction outside of the FUS-SNAP condensates, single compound test reactions versus mixture of four compounds
1 | O=C1OC2(c3ccc(O)cc3Oc3cc(O)ccc32)c2ccccc21 [Dye 6, Fluorescein] | not partitioning into FUS-condensates | 1-100 | does not partition into the FUS-condensates at any of the tested concentrations | in agreement
2 | CCN(CC)c1ccc2c(-c3ccccc3C(=O)O)c3ccc(=[N+](CC)CC)cc-3oc2c1 [Dye 16, Rhodamine B] | – | 666 | – | in agreement

Now from value to compound, other results behind:

Row | Identified partitioning into FUS-condensates | Ratio of compound concentration in versus compound concentration out, MS-based assay | SMILES | Partitioning into FUS-condensates at different compound concentrations (fraction of compound in supernatant) | Measured fraction outside of the FUS-SNAP condensates, single compound test reactions versus mixture of four compounds
3 | – | 1-100 | COC(=O)c1ccccc1-c1c2ccc(=N)cc-2oc2cc(N)ccc12.Cl [Dye 14, Rhodamine 123] | – | –
4 | partitioning into FUS-condensates | >8,000 | O=C([O-])c1ccccc1C1=c2cc3c4c(c2Oc2c1cc1c5c2CCCN5CCC1)CCC[N+]=4CCC3 [Dye 17, Rhodamine 101 inner salt] | partition into the FUS-condensates at lower compound concentrations | –
5 | – | >2,000 | N#CC1=c2cc3c4c(c2Oc2c1cc1c5c2CCCN5CCC1)CCC[N+]=4CCC3 [Dye 18, Rhodamine 800] | – | –
